Format in all cases: cell-based
Test [1] concerns the target T1, PAR2 (HT-29 cells) (Homo sapiens, UniProt P55085).
T1 construct: host or cells: HT-29
T1 sequence (P55085 26-397): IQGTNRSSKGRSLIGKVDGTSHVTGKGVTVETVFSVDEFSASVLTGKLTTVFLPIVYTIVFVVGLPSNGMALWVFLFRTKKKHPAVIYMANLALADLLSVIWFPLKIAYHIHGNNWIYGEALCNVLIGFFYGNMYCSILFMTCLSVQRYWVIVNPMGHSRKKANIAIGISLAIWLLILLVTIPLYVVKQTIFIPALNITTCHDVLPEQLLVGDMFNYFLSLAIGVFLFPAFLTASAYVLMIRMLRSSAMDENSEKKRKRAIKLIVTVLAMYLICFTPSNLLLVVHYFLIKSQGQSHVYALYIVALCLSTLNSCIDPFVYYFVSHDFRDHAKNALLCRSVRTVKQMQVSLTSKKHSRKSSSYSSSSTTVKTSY
Briefly: Ca FLIPR TETRA assay, ANTAGONIST mode, activator 8 μM SLIGKV. The conditions noted are these: HT-29 cells, activator 8 μM SLIGKV; maximal antagonist concentration per Method (A: 0.1, 1 or 2 μM; B: 50 μM). The gist of the method: (§1)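 HT-29 cells in 1% FBS/McCoy's overnight, loaded with FLIPR Calcium 5 dye (45 min 37 °C, 15 min r.t.); compounds added and read for intrinsic Ca2+ activation, then after 30 min r.t. stimulated with fixed activator: 8 μM SLIGKV, 0.6 μM UTP, 1 U/mL thrombin or 3.1 U/mL trypsin (final).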

The target in test [2] is T1, PAR2 (HT-29 cells). Briefly: Ca FLIPR TETRA assay, ANTAGONIST mode, activator 3.1 U/mL trypsin. Conditions: HT-29 cells, activator 3.1 U/mL trypsin; maximal antagonist concentration per Method (A: 0.1, 1 or 2 μM; B: 50 μM). The gist of the method: as §1
Test [3] has as its system Thrombin-stimulated Ca2+ response in HT-29 cells. Briefly: Ca FLIPR TETRA assay, ANTAGONIST mode, activator 1 U/mL Thrombin. Conditions: HT-29 cells, activator 1 U/mL Thrombin. In short, it runs like this:
as §1

The subject of test [4] is UTP-stimulated Ca2+ response in HT-29 cells. As to the kind of experiment: Ca FLIPR TETRA assay, ANTAGONIST mode, activator 0.6 μM UTP. Conditions: HT-29 cells, activator 0.6 μM UTP. The gist of the method:
as §1

pIC50: −log10 of the molar value.

Broadly, the pIC50 is the IC50 on a negative log10 scale, so that one unit is a factor of ten.

As for `CC1(C)CCC(c2cc(C(C)(C)C)c3oc(C(=O)N4CCNC(=O)C4(C)C)cc3n2)CC1` [Example I-217, 4-[7-tert-butyl-5-(4,4-dimethylcyclohexyl)furo[3,2-b]pyridine-2-carbonyl]-3,3-dimethyl-piperazin-2-one], the pIC50 is 7.89 in test [1], 7.66 in test [2], < 5.70 in test [3] (Homo sapiens) and < 5.70 in test [4] (Homo sapiens).

In the case of `CC(C)(C)c1cc(C2CCC(Cl)(Cl)CC2)nc2cc(C(=O)N3CCNC(=O)C3(C)C)oc12` [Example I-218], the pIC50 was 7.44 in test [1], 7.36 in test [2], < 5.70 in test [3] (Homo sapiens) and < 5.70 in test [4] (Homo sapiens).

On to `CNS(=O)(=O)CC(=O)N1CCN(C(=O)c2cc3nc(C4CCC(F)(F)CC4)cc(C(C)(C)C)c3o2)C(C)(C)C1=O` [Example I-219], for which the pIC50 in test [1] is 7.41; in test [2] it was 7.30; in test [3], < 5.70; in test [4] it was < 5.70.

In the case of `CC(C)(C)c1cc(C2CCC(F)(F)CC2)nc2cc(C(=O)N3CCN(C(=O)[C@H]4CC[C@@](C)(C(=O)O)CC4)C(=O)C3(C)C)oc12` [Example I-220], the negative-log IC50 (pIC50) in test [1] was 8.17; in test [2] it was 7.89; in test [3], < 5.70; in test [4], < 5.70.

Regarding `Cc1nc(C(=O)N2CCN(C(=O)c3cc4nc(C5CCC(F)(F)CC5)cc(C(C)(C)C)c4o3)C(C)(C)C2=O)n[nH]1` [Example I-221], the pIC50 was 7.49 in test [1], 7.24 in test [2], < 5.70 in test [3] and < 5.70 in test [4].

Take `CC(C)(C)c1cc(C2CCC(F)(F)CC2)nc2cc(C(=O)N3CCN(C(=O)CNS(C)(=O)=O)C(=O)C3(C)C)oc12` [Example I-222]: the pIC50 in test [1] was 6.56; in test [2], 6.14; in test [3], < 5.70; in test [4], < 5.70.

With `Cc1cc(C(=O)N2CCN(C(=O)c3cc4nc(C5CCC(F)(F)CC5)cc(C(C)(C)C)c4o3)C(C)(C)C2=O)[nH]n1` [Example I-223], the pIC50 in test [1] is 7.86; in test [2], 7.41; in test [3], < 5.70; in test [4] it was < 5.70.

Regarding `CC(C)(C)c1cc(C2CCC(F)(F)CC2)nc2cc(C(=O)N3CCN(C(=O)C4CC(O)(C(F)(F)F)C4)C(=O)C3(C)C)oc12` (stereo not drawn) [Example I-224], the pIC50 in test [1] was 8.64; in test [2], 8.48; in test [3], < 5.70; in test [4] it was < 5.70.

As for `CC(C)(C)c1cc(C2CCC(F)(F)CC2)nc2cc(C(=O)N3CCN(C(=O)[C@H]4CC[C@@H](O)CC4)CC3(C)C)oc12` [Example I-225], the pIC50 is 7.89 in test [1], 7.62 in test [2], < 5.70 in test [3] (Homo sapiens) and < 5.70 in test [4] (Homo sapiens).

For `CNS(=O)(=O)CCC(=O)N1CCN(C(=O)c2cc3nc(C4CCC(F)(F)CC4)cc(C(C)(C)C)c3o2)C(C)(C)C1` [Example I-226], the pIC50 in test [1] is 7.12; in test [2], 6.64; in test [3] (Homo sapiens) it was < 5.70; in test [4] (Homo sapiens), < 5.70.

With `Cc1n[nH]c(C(=O)N2CCN(C(=O)c3cc4nc(C5CCC(C)(C)CC5)cc(C(C)(C)C)c4o3)C(C)(C)C2)n1` [Example I-227], the pIC50 in test [1] is 9.10; in test [2], 8.92; in test [3] (Homo sapiens), < 5.70; in test [4] (Homo sapiens) it was < 5.70.

For the compound `CC1(C)CCC(c2cc(C(C)(C)C)c3oc(C(=O)N4CCN(C(=O)[C@H]5C[C@@](C)(O)C5)CC4(C)C)cc3n2)CC1` [Example I-228], the pIC50 in test [1] is 9.05; in test [2] it was 8.85; in test [3] (Homo sapiens), < 5.70; in test [4] (Homo sapiens), < 5.70.

Consider `CC(C)(C)c1cc(C2CCC(F)(F)CC2)nc2cc(C(=O)N3CCN(C(=O)[C@H]4CC[C@@H](C(=O)O)CC4)CC3(C)C)oc12` [Example I-229], for which the pIC50 in test [1] is 7.62; in test [2] it was 7.55; in test [3] (Homo sapiens), < 5.70; in test [4] (Homo sapiens) it was < 5.70.

With `CC(C)(C)c1cc(C2CCC(F)(F)CC2)nc2cc(C(=O)N3CCN(C(=O)c4cnccn4)CC3(C)C)oc12` [Example I-230], the pIC50 is 7.09 in test [1], 6.82 in test [2], < 5.70 in test [3] (Homo sapiens) and < 5.70 in test [4] (Homo sapiens).

For `CC(C)(C)c1cc(C2CCC(F)(F)CC2)nc2cc(C(=O)N3CCN(C(=O)c4ncccn4)CC3(C)C)oc12` [Example I-231], the pIC50 is 7.08 in test [1], 6.80 in test [2], < 5.70 in test [3] (Homo sapiens) and < 5.70 in test [4] (Homo sapiens).

As to `CC(C)(C)c1cc(C2CCC(F)(F)CC2)nc2cc(C(=O)N3CCN(C(=O)CCS(C)(=O)=O)CC3(C)C)oc12` [Example I-232], the pIC50 in test [1] is 6.67; in test [2], 6.70; in test [3] (Homo sapiens), < 5.70; in test [4] (Homo sapiens), < 5.70.

Consider `CCC(CC)c1cc(-c2ccc(F)cc2)nc2cc(C(=O)N3CCNC(=O)C3(C)C)oc12` [Example I-233], for which the pIC50 in test [1] is 8.21; in test [2], 8.09; in test [3] (Homo sapiens), < 5.70; in test [4] (Homo sapiens) it was < 5.70.

Consider `CC(C)(C)c1cc(C2CCC(F)(F)CC2)nc2cc(C(=O)N3CCN(C(=O)[C@H]4C[C@@](C)(O)C4)CC3(C)C)oc12` [Example I-234], for which the pIC50 is 7.66 in test [1], 7.42 in test [2], < 5.70 in test [3] (Homo sapiens) and < 5.70 in test [4] (Homo sapiens).

As to `CC(C)(C)c1cc(-c2ccc(F)cc2)nc2cc(C(=O)N3CCN(c4ccn[nH]4)C(=O)C3(C)C)oc12` [Example I-235], the pIC50 in test [1] was 8.25; in test [2], 8.03; in test [3] (Homo sapiens), < 5.70; in test [4] (Homo sapiens), < 5.70.

As for `CN1CCN(C(=O)c2cc3nc(-c4ccc(Cl)cc4)cc(C(C)(C)C)c3o2)C(C)(C)C1=O` [Example I-236], the pIC50 is 8.46 in test [1], 8.30 in test [2], < 5.70 in test [3] (Homo sapiens) and < 5.70 in test [4] (Homo sapiens).

Turning to `[2H]C([2H])([2H])N1CCN(C(=O)c2cc3nc(-c4ccc(Cl)c(F)c4)cc(C(C)(C)C)c3o2)C(C)(C)C1=O` [Example I-237], the pIC50 in test [1] was 8.74; in test [2] it was 8.62; in test [3] (Homo sapiens), < 5.70; in test [4] (Homo sapiens), < 5.70.

Turning to `[2H]C([2H])([2H])N1CCN(C(=O)c2cc3nc(-c4cccc(Cl)c4)cc(C(C)(C)C)c3o2)C(C)(C)C1=O` [Example I-238], the pIC50 in test [1] is 7.74; in test [2], 7.55; in test [3] (Homo sapiens), < 5.70; in test [4] (Homo sapiens), < 5.70.

For `[2H]C([2H])([2H])N1CCN(C(=O)c2cc3nc(-c4ccc(F)c(Cl)c4)cc(C(C)(C)C)c3o2)C(C)(C)C1=O` [Example I-239], the pIC50 in test [1] was 8.21; in test [2] it was 8.27; in test [3] (Homo sapiens), < 5.70; in test [4] (Homo sapiens), < 5.70.

Consider `[2H]C([2H])([2H])N1CCN(C(=O)c2cc3nc(-c4ccc(Cl)cc4)cc(C(C)(C)C)c3o2)C(C)(C)C1=O` [Example I-240], for which the pIC50 in test [1] was 8.57; in test [2] it was 8.74; in test [3] (Homo sapiens), < 5.70; in test [4] (Homo sapiens), < 5.70.

For `CN1CCN(C(=O)c2cc3nc(-c4ccc(Cl)c(F)c4)cc(C(C)(C)C)c3o2)C(C)(C)C1=O` [Example I-241], the pIC50 in test [1] is 8.77; in test [2], 8.80; in test [3] (Homo sapiens) it was < 5.70; in test [4] (Homo sapiens), < 5.70.

As to `CN1CCN(C(=O)c2cc3nc(-c4cccc(Cl)c4)cc(C(C)(C)C)c3o2)C(C)(C)C1=O` [Example I-242], the pIC50 in test [1] was 7.72; in test [2], 7.62; in test [3] (Homo sapiens) it was < 5.70; in test [4] (Homo sapiens) it was < 5.70.

Take `CN1CCN(C(=O)c2cc3nc(-c4ccc(F)c(Cl)c4)cc(C(C)(C)C)c3o2)C(C)(C)C1=O` [Example I-243]: the pIC50 in test [1] is 8.40; in test [2], 8.13; in test [3] (Homo sapiens), < 5.70; in test [4] (Homo sapiens), < 5.70.

For `CC(C)(C)c1cc(-c2cccc(Cl)c2)nc2cc(C(=O)N3CCNC(=O)C3(C)C)oc12` [Example I-244], the pIC50 in test [1] was 7.72; in test [2], 7.57; in test [3] (Homo sapiens), < 5.70; in test [4] (Homo sapiens), < 5.70.

Take `CC[C@@H](C)c1cc(-c2ccc(F)cc2)nc2cc(C(=O)N3CCNC(=O)C3(C)C)oc12` [Example I-245]: the pIC50 in test [1] is 8.60; in test [2] it was 8.32; in test [3] (Homo sapiens) it was < 5.70; in test [4] (Homo sapiens) it was < 5.70.

`CC[C@H](C)c1cc(-c2ccc(F)cc2)nc2cc(C(=O)N3CCNC(=O)C3(C)C)oc12` [Example I-246]: the pIC50 is 7.96 in test [1], 7.80 in test [2], < 5.70 in test [3] (Homo sapiens) and < 5.70 in test [4] (Homo sapiens).

(Values after patent publication US20180057505A1, “BICYCLIC HETEROARYL COMPOUNDS USEFUL AS INHIBITORS OF THE PAR-2 SIGNALING PATHWAY” (VERTEX PHARMACEUTICALS INCORPORATED, priority 2015, published 2018).)
